Test results: patent publication US20100068747A1, “Generic Assay for Monitoring Endocytosis” (Evotec Technologies GmbH, priority 2005, published 2010)

Tested on: U2OS/ETAR-GFP cells
Test: Lectin labeling of live cells, U2OS/ETAR-GFP
Format: cell-based, human

succinylated Triticum vulgaris (wheat germ) agglutin [sWGA]
delay in spot formation (pH 6.8, U2OS cells): 20 min
spot formation at increased pH (pH 8.0, U2OS cells): accelerated
